The values below come from patent US20130330754A1, “SOL-GEL DERIVED SENSOR FOR RAPID DETERMINATION OF HEAVY METALS” (priority 2012, published 2013).

Experiment [1] has as its target T1, β-galactosidase (B-GAL) (Escherichia coli, UniProt P00722). As to the kind of experiment: B-GAL inhibition by heavy metals on bioactive paper sensor (CPRG colour intensity). The class given is biochemical, E. coli. The settings on record: for IC50 values (concentration to obtain 50% inhibition of B-GAL) / limits of detection (LODs): paper sensor, 10 min incubation with metal; for limits of detection (LODs): B-GAL/CPRG assay; for inhibition of B-GAL: single metal. An excerpt: The sensors were constructed based on an enzyme, B-GAL vs. substrate, CPRG system with three design strategies: a one-dimensional strategy and two flower shape strategies. In the one-dimensional strategy, a section of Whatman #1 paper was cut into small pieces (0.5×8 cm) on which B-GAL and CPRG were entrapped using sol-gel derived sol gel materials into two different zones (e.g., enzyme or sensing and substrate zones). To prevent leaching the color, a hydrophobic barrier was also introduced on the top (FIG. 1b) of the sensing zone(s) using either wax (by wax printer, Xerox Phaser 8560N) or methyltrimethoxysilane (MTMS) (via piezoelectric inkjet printing).
The sensing zones for all cases were incubated with a drop of contaminated sample for 10 min. The bottom of the paper sensor (FIG. 1b, c) was placed into water while a few drops of water were put at the middle of the sensor (FIG. 1d) for lateral flow chromatography. The color intensity was monitored after 5 min air drying at room temperature. The inkjet printing was done as described elsewhere.^31, 32 After printing, the sensor was allowed to dry for at least 1 h in air at room temperature.
The inhibitory effects of these metals on the solid-phase biosensor were evaluated by measuring the decrease in the color intensity produced by the enzyme-substrate reaction. The sensing region of the paper sensor was first incubated with various concentrations of heavy metals (5 μL) for 10 min after which the paper sensor was allowed for lateral flow chronographic system. The images were taken after 5-10 min air drying at room temperature.
The color intensity of the sensing areas was monitored either by the naked eye, by obtaining a digital image (Canon G11 12 MegaPixel camera operated in automatic mode with no flash and with the macroimaging setting on) or by using an office scanner, with ImageJ™ software being used to analyze the Jpeg images in the latter two cases. The numerical single color coordinates values were obtained using the ImageJ™ color split channel system. All data points represent the average of four replicate experiments and the error bars represent the standard deviations (s.d.) of those points.

Experiment [2] concerns the target T1, β-galactosidase (B-GAL). The settings on record: EDTA 10 mM; Hg(II), Ag(I) ~2.7 ppm each, other metals ~8 ppm each.
In experiment [3] the target is T1, β-galactosidase (B-GAL). The protocol:
The sensor was incubated with a 5 μL sample for 10 min (a separate paper sensor was made for each concentration) and the B-GAL inhibition tested as outlined above.

T1 sequence (P00722 2-1024): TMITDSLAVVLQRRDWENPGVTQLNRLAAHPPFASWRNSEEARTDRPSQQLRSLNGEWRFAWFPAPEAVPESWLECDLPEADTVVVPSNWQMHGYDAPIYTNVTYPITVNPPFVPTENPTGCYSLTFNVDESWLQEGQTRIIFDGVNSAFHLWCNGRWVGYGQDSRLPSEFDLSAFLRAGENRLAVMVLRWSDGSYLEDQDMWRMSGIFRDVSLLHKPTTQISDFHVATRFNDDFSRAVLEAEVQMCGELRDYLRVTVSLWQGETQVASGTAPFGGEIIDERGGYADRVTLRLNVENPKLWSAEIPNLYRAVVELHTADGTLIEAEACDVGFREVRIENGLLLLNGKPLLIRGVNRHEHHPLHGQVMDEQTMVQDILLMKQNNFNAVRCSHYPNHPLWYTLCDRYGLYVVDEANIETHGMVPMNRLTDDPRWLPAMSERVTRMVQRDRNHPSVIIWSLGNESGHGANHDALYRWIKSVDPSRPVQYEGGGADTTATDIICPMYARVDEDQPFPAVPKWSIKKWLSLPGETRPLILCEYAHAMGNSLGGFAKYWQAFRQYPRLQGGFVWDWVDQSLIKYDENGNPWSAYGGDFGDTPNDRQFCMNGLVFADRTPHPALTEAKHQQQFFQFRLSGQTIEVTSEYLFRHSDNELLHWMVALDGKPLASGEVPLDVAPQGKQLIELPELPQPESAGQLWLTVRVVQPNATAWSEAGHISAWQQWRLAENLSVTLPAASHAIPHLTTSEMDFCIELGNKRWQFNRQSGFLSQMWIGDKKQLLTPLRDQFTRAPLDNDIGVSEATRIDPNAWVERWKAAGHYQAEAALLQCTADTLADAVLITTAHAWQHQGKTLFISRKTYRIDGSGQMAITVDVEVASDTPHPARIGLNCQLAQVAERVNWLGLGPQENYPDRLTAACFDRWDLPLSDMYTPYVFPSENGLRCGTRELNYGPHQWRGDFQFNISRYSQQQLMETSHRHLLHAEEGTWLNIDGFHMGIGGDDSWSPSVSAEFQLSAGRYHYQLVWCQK

For the compound `[Pb+2]` [Pb(II)], in experiment [1], the “IC50 values (concentration to obtain 50% inhibition of B-GAL)” value is reported as 1.40 ppm and the “limits of detection (LODs)” value is around 0.140 ppm. The “inhibition of B-GAL after inclusion of EDTA” value (shortened to “inhibition of B-GAL … of EDTA”) in experiment [2] was “completely removed the inhibition”.
In the case of `[Ni+2]` [Ni(II)], in experiment [1], the “IC50 values (concentration to obtain 50% inhibition of B-GAL)” value is 1.80 ppm and the “limits of detection (LODs)” value is around 0.230 ppm. In addition, the “inhibition of B-GAL … of EDTA” value in experiment [2] was “completely removed the inhibition”.
For `O=S(=O)([O-])[O-].[Cu+2]` [Cu(II), CuSO4], in experiment [1], the “IC50 values (concentration to obtain 50% inhibition of B-GAL)” value was determined as 0.70 ppm and the “limits of detection (LODs)” value is around 0.020 ppm. The “inhibition of B-GAL” value in experiment [1] (3 μM) was 23%. For the same compound, the “inhibition of B-GAL … of EDTA” value in experiment [2] is “completely removed the inhibition”.
For `[Cl-].[Na+]` [NaCl], the “effect of nontoxic metal ion on response vs. concentration of Hg^2+ and limit of detection” value in experiment [3] (NaCl 10 μM, KCl 100 ppm) is recorded as “negligible effect”.
With `[Cl][Hg][Cl]` [Hg(II), HgCl2], the “IC50 values (concentration to obtain 50% inhibition of B-GAL)” value in experiment [1] is on record as 0.03 ppm. Also, the “inhibition of B-GAL” value in experiment [1] (0.1 μM) is given as 42%. In experiment [3] (Hg^2+ mixed with NaCl (10 μM)), this compound gave a limit of detection of around 0.01 µM. Also, in experiment [3] (read-out: IC50 value, Hg^2+ mixed with NaCl (10 μM)), the IC50 came out at 120 nM. Further, in experiment [2], the “inhibition of B-GAL … of EDTA” value is on record as “completely removed the inhibition”.
For the compound Cr(VI), in experiment [1], the “IC50 values (concentration to obtain 50% inhibition of B-GAL)” value is 1.49 ppm and the “limits of detection (LODs)” value is listed as around 0.150 ppm. Further, the “inhibition of B-GAL … of EDTA” value in experiment [2] is recorded as “retaining the inhibition”.
For `[Cl][Cd][Cl]` [Cd(II), CdCl2] the same measures were 1.14 ppm, around 0.020 ppm and “completely removed the inhibition”.
`O=[N+]([O-])[O-].[Ag+]` [Ag(I), AgNO3]: in experiment [1], the “IC50 values (concentration to obtain 50% inhibition of B-GAL)” value stood at 0.05 ppm and the “limits of detection (LODs)” value is on record as around 0.002 ppm. Also, the “inhibition of B-GAL” value in experiment [1] (0.1 μM) was “about 35%”. For the same compound, the “inhibition of B-GAL … of EDTA” value in experiment [2] is reported as “retaining the inhibition”.

Broadly, the IC50 is the concentration that inhibits the measured activity by half.
